Measured values taken from patent US6218112A, “Optimization of gene delivery and gene delivery system” (Cobra Therapeutics Limited, priority 1997, dated 2001).
“Also recorded” adds a separate entry of the source. * marks the point of attachment. Palmitoyl = CCCCCCCCCCCCCCCC(=O)*; Acm = CC(=O)NC*

Experiments:
Tumor Cells = assay: In vitro transfection with complexes containing lipidated peptides; assay type: cell-based
Method: (§1) After incubation the cells are lysed and are assayed for gene expression. In the case of the luciferase reporter gene, luciferin and ATP are added to lysed cells and the light emitted is measured with a luminometer (see deWet et al., supra).
For the data provided in FIG. 8, complexes were assembled as described herein using NBC2 and Lip2 as condensing peptides.

cells = assay: Transfection efficiency / activity of complexes (general statement); assay type: cell-based; settings: related to affinity for nucleic acid
[1] = tested on: plasmid nucleic acid pRSVLuc; assay: Surface plasmon resonance (BIAcore) binding kinetics of peptides/conjugates to immobilized biotinylated plasmid DNA
Method: In the examples described below, SPR was detected using the BIAcore system. This machine contained an SPR detector and an integrated microfluidic cartridge which is engineered such that an analyte solution (cationic peptide) is continuously passed over the sensor chip. The sensor chip consists of a glass plate coated with a thin film of gold covered in a layer of carboyxymethyl dextran. The chip used has a dextran layer to which streptavidin is covalently attached. The chip is prepared for use by adding biotinylated nucleic acid which will be bound to the chip via the streptavidin-biotin interaction, and the same chip is used in a series of experiments.
As material binds to the immobilized nucleic acid molecule on the sensor chip, the SPR angle of plane polarized light shining on the surface of the chip is monitored by the detector. Changes in angle are defined as resonance units (RU) and data are collected every second. Background effects are detected and automatically subtracted by the use of a control flow cell in line with the nucleic acid flow cell.
A typical sensorgram has three phases: an association phase, an equilibrium phase and a dissociation phase (see FIG. 1). The rise in signal occurs as more peptide binds to the immobilized plasmid DNA until equilibrium conditions are reached. The height of the peak is directly proportional to the mass of peptide bound. If the flow continues with buffer containing no peptide, peptide begins to dissociate from the complex and the resonance signal is reduced. The sensorgram can be used to compute apparent rate constants for each of the three individual processes.
(1) dC/dt=ka [PF ] [Pmax -PB ]-kd [PB ]
Measurement of Binding Kinetics by Surface Plasmon Resonance
A 6 kilobase (kb) plasmid DNA (pRSVLuc) was biotinylated using photoactivatable biotin (Pierce and Warriner) as per manufacturer's instructions.
A sensor chip with immobilized streptavidin (SA5) was conditioned following manufacturer's instructions, i.e., three one-minute injections of 1 M NaCl: 50 mM NaOH followed by one 1 min injection of 0.5% SDS. Flow rate on the BlAcore sensing device was 20 μl per min, running buffer was phosphate buffered saline (PBS). Flow path was flow cells 1 and 2.
The flow path was switched to flow cell 2 only and the flow rate was reduced to 10 μl per minute. Biotinylated plasmid at a concentration of […] in 0.5M NaCl was injected for 3 mins.
Phosphate buffered saline was used as running buffer at a flow rate of 20 μl per minute. The flow path was over flow cells 1 and 2. Flow cell 1 was used as a reference cell. The experiments were carried out at a temperature of 25° C.
Peptides were injected at various concentrations for three minutes. The injection was followed by a 5 min dissociation phase before the injection port was washed. The sensor chip was regenerated by the injection of 2M NaCl for 1 min. If necessary, this injection was repeated to bring the response back down to baseline before the next peptide sample was injected.
The data was analysed using the methods described in the handbook (BIAevaluation 2.1. Software Handbook, Pharmacia Biosensor AB, Uppsala, Sweden).
Essentially the plots were evaluated as follows: The dissociation constant, kd, was determined first. A curve or family of curves (same NBC at different concentrations) were plotted as response (Y) versus time as Ln (Yo/Y) versus time. In the area where the Ln(Yo/Y) curve was linear, a fit of the default dissociation model [AB]=[A]+[B] was made. The association constant, ka, was then calculated by fitting the related association model on that part of the association curve where a plot of In(abs(dY/dt) versus time was linear. KD were approximated by dividing the calculated kd with the calculated ka.

[2] = tested on: KLN-205 squamous epithelial syngenic tumour cells; assay: In vivo transfection of KLN-205 tumours in DBA2 mice by local injection of peptide/plasmid complexes (nitroreductase immunostaining); design: species or system mouse; settings: 0.5 μg peptide/μg DNA, intratumoural injection
Method: A representative in via cell transfection system is transfection of tumor cells using a murine carcinoma model.
The murine carcinoma model DBA2 containing the squamous epithelial syngenic tumour cell line KLN-205 was prepared as described in the Examples. A transfecting complex was prepared using a solution of plasmid DNA encoding a reporter gene or, for example, nitroreductase and a selected NBC peptide 0.5 μg peptide/μg DNA, as described herein. Where desired, a conjugate peptide was added to the transfecting complex, at a concentration of 0.1-0.3 μg […] peptide/μg DNA.
Transfection efficiency may be determined in a number of ways, including assessing the effect of the reporter gene on the target tissue, or by quantitating the gene product. Below, tissues samples were obtained and nitroreductase gene expression was ascertained via staining of tissue sections.
The ability to transfect tumor cells in vivo in mice was tested using plasmid nucleic acid carrying the nitroreductase reporter gene condensed on each of the following peptides: NBC15, NBC8, NBC9, NBC11, NBC7.
DBA2--male mice, aged 5-10 weeks were injected subcutaneously in each flank with a squamous epithelial syngenic tumour cell line KLN-205. The cell line was grown up in 175 ml T-flasks in standard EMEM medium containing 10% foetal calf serum. When the cells reached a density of 4×10^6 they were suspended by a standard trypsinization technique, washed in PBS and diluted to a final concentration of […].
The anaesthetic was Enflurane (Alynane; Anaquest, Ltd., Windlesham, Surrey UK): Ketamine (10% Ketaset, Willows Francis Veterinary, Cramley, West Sussex, UK); Rompun (2%, Bayer UK, Ltd., Suffolk, UK). For 10 ml anaesthetic mixture: 8.5 ml PBS; 1 ml Ketamine; 0.5 ml Rompun. Each animal was injected intra-peritoneally with 200 μl/animal using 1 ml syringe with 25 gauge needle. Once anaesthetized, the tumour is manipulated between the fingers lifting it slightly away from the animal's body and at the same time apply minimum pressure to the tumour. Using a 0.5 ml insulin needle the formulated delivery vehicle (a plasmid containing the E. coli nitroreductase gene condensed on a peptide at a ratio of 0.5 μg peptide/μg DNA) to be injected is taken up and the tumour is injected horizontally trying to avoid any visible blood vessels and necrotic or abnormal tissue. Daily monitoring is continued until the experiment is terminated.
7μ sections of frozen tumour tissue are prepared using standard methods and a Cryostat and air dried. Sections are fixed with freshly prepared 4% PFA/PBS for 30 mins at room temperature and then washed twice with 0.01% Tween-20/PBS 5 mins each wash. Sections are then immersed in 0.25% hydrogen peroxide/PBS, at room temperature (20C.) for 30 mins, and then washed three times in 0.01% Tween 20/PBS for 5 mins each wash. Sections are then permeabilised by treatment with ice cold 0.1 % TRITON X-100 for 5 mins, followed by a further two washes in 0.01% Tween-20/PBS 5mins each wash. The sections are then blocked with 5% NGS/PBS 60mins at room temperature in a wetbox. After decanting the blocking solution, 0.5 ml diluted antiserum/slide (1:400 in 2.5% NGS) is added and the sections incubated for 60 mins at room temperature. Slides are then washed three times in 0.01% Tween-20/PBS 5 mins each wash. Secondary antibody (0.5 ml) from ABC Elite Vector stain kit is added as follows and incubated 30 mins at room temperature in a wetbox.
The tumour is a murine syngenic squamous carcinoma produced by subcutaneous injection of KLN205 cells. When the tumours were approximately 4 mm in diameter they were injected with 20 μl of plasmid DNA formulated with the NBC15 peptide. After 48 h the tumours were excised and sectioned by standard histological techniques and immunostained for expression of the transgene (E. coli nitroreductase). […] In this case the tumours were injected with the same plasmid formulated in 0.5 μg NBC9 peptide/μg DNA.

Jurkat cell line = assay: In vitro transfection with pRSVLuc (luciferase) condensed on peptides; assay type: cell-based; settings: peptide 2 μg/μg plasmid DNA, luciferase after 24 h, FIG. 7
Method: as §1
Cell lines such as Jurkat and K562 grow in suspension and can be transfected and the level of transgene expression (luciferase activity) determined b) the following method. Cells are harvested on the day of assay by centrifugation at 1200 rpm for 5 mins at room temperature. The cell pellet is resuspended in phosphate buffered saline and re-centrifuged. This operation is performed twice. […] The cells are then aliquoted into tubes and 0.75 ml of RPMI medium added, followed by 0.04-0.08 ml of 100 mM Chloroquine and finally 0.25 ml of DNA-complex solution. The transfection is then allowed to proceed by incubating the cells at 37° C. for 4 h. After this time the cells are harvested by centrifugation at 2000 rpm. The cells are then suspended in 1 ml of RPMI medium and re-centrifuged. Finally the cells are suspended in 0.5 ml RPMI medium containing 10% foetal bovine serum. Each 0.5 ml of transfected cell suspension is transferred to a well of a 12 well plastic culture plate containing 1.5 ml of RPMI 10% FBS. The original transfection tube is rinsed with a further 1 ml of medium and the wash transferred to the culture dish making a final volume of 3 ml. The culture plate is then incubated at 37° C. for 24-90 h in an atmosphere of 5% CO2. The contents of each well in the culture dish are transferred to centrifuge tubes and the cells collected by centrifugation at 13000 rpm. The pellet is resuspended in 0.12 ml of Lysis Buffer (100 mM sodium phosphate, pH 7.8; 8 mM magnesium chloride, 1 mM EDTA; 1% Triton X-100 and 15% glycerol) and agitated with a pipette. The lysate is centrifuged at 13000 rpm for 1 min and the supernatant collected. 80 μl of the supernatant are transferred to a luminometer tube. The luciferase activity is then assayed using a Berthold Lumat L9501 luminometer. The assay buffer used is Lysis Buffer containing 10 mM Luciferin and 100 mM ATP. Light produced by the luciferase is integrated over 4s and is described as relative light units (RLU). The data are converted to RLU/ml of lysate, RLU/cell or RLU/mg protein (protein concentration of the lysate having been determined in this case by the BioRAD Lowry assay.
In order to compare the relative efficiency of transfection of complexes composed of different NBC condensation peptides or poly-L-lysine, pRSVLuc DNA at a concentration of 100 μg/ml was condensed using peptide at a ratio of 2 μg/μg plasmid DNA as described herein with the following deviation: prior to addition to the cells (Jurkat cell line) the complexes were diluted to 20 μg/ml with 10% PEG 10 000; 37 mM sodium chloride; 25 mM sodium phosphate, pH 7.4. The cells were assayed for luciferase after 24 h.

Question: For “CH3-(CH2)14-CONH-KPKAAKPKKPKKKRKVEKKSPKKAKKPAAC(Acm)SEQ ID NO:11-COOH (Palmitoyl-KPKAAKPKKPKKKRKVEKKSPKKAKKPAAC(Acm)-OH; SMILES CCCCCCCCCCCCCCCC(=O)N[C@@H](CCCCN)C(=O)N1CCC[C@H]1C(=O)N[C@@H](CCCCN)C(=O)N[C@@H](C)C(=O)N[C@@H](C)C(=O)N[C@@H](CCCCN)C(=O)N1CCC[C@H]1C(=O)N[C@@H](CCCCN)C(=O)N[C@@H](CCCCN)C(=O)N1CCC[C@H]1C(=O)N[C@@H](CCCCN)C(=O)N[C@@H](CCCCN)C(=O)N[C@@H](CCCCN)C(=O)N[C@@H](CCCNC(=N)N)C(=O)N[C@@H](CCCCN)C(=O)N[C@H](C(=O)N[C@@H](CCC(=O)O)C(=O)N[C@@H](CCCCN)C(=O)N[C@@H](CCCCN)C(=O)N[C@@H](CO)C(=O)N1CCC[C@H]1C(=O)N[C@@H](CCCCN)C(=O)N[C@@H](CCCCN)C(=O)N[C@@H](C)C(=O)N[C@@H](CCCCN)C(=O)N[C@@H](CCCCN)C(=O)N1CCC[C@H]1C(=O)N[C@@H](C)C(=O)N[C@@H](C)C(=O)N[C@@H](CSCNC(C)=O)C(=O)O)C(C)C) [Lip2]”, which “transfection efficiency, lipidated peptide with free underivatized peptide” value (Tumor Cells; Lip2 with NBC2, FIG. 8) is on record?
Answer: The value was “transfection efficiency is augmented; also recorded: more than two orders of magnitude”.

Question: What about the “transfection efficiency, condensation with lipidated peptide alone” value (Tumor Cells; complete condensation with palmitoyl-NBC2 (Lip2) alone) of the same substance?
Answer: The value was “extremely poor transfection efficiencies”.

Question: How did the transfection efficiency (cells) turn out when “NH2-KKSPKKAKKPAAKKSPKKAKKPAAKKSPKKAKKPAAKKSPKKAKKPAYC(Acm)-COOH (H-KKSPKKAKKPAAKKSPKKAKKPAAKKSPKKAKKPAAKKSPKKAKKPAYC(Acm)-OH) [NBC10]” was run?
Answer: Its transfection efficiency is “not completely deleterious to transfection”.

Question: And the ka ([1]; apparent rate constant for association, SPR, PBS, 25° C.)?
Answer: Its ka is 219000 M⁻¹ s⁻¹.

Question: What about the kd ([1]; apparent rate constant for dissociation, SPR, PBS, 25° C.) of the same substance?
Answer: The kd was 0.0011 s⁻¹.

Question: What about the “apparent dissociation constant kd” value ([1]; approximate values) of the same substance?
Answer: The value was “approximately 1×10^-3 sec^-1”.

Question: And the Kd ([1]; approximate values, read-out: equilibrium dissociation constant KD)?
Answer: Its Kd is ~5 nM.

Question: How did the “ranking by numbers of transfected tumor cells (most to least efficient)” value [2] turn out when poly-lysine [reference compound] was run?
Answer: Its value is “NBC15>NBC8, NBC9, NBC11>NBC7>>>poly-lysine”.

Question: And the “number of transfected tumor cells / level of transfection” value ([2]; 48 h, nitroreductase immunostaining)?
Answer: Its value is “the fewest number of transfected tumor cells”.

Question: And the “rank in order of relative transfection efficiency (most to least efficient)” value (Jurkat cell line)?
Answer: Its value is “NBC11>NBC13>NBC8>>NBC15>>>polylysine”.
